This is an account of results in patent US20240270758A1, “PYRIDINO-OR PYRIMIDO-CYCLIC COMPOUND, PREPARATION METHOD THEREFOR AND MEDICAL USE THEREOF” (Genfleet Therapeutics (Shanghai) Inc., priority 2021, published 2024).

Data set [1] can be described thus: Mice pharmacokinetic evaluation experiment. Type of data set: in vivo. As to conditions: male, ICR, mouse, mice plasma; for Vd / half-life: IV 1 mg/kg; for AUC / Cmax: PO 100 mg/kg. The source says:
Purpose of the experiment: male ICR mice were used as test animals to determine the drug concentration in plasma at different time points after intravenous and intragastric administration of test compounds by LC/MS/MS method. The pharmacokinetic behavior of the test compound in mice was studied to evaluate its pharmacokinetic characteristics.
Experimental protocol: laboratory animals: twelve healthy adult male ICR mice, weighing about 30 g, were randomly divided into two groups, 6 mice in IV group and 6 mice in PO group, N=3/time point, with semi-continuous blood collection. Animals were purchased from Vital River Laboratory Animal Technology Co., Ltd.
Drug preparation: IV group: taking 10 mL sample solution as an example, weighing 2 mg sample, followed by adding 0.5 mL DMSO, […], then adding […] HP-β-CD, finally dilute to 10 mL with water, stirring and ultrasound to reach 0.2 mg/mL clear state. PO group: weighing an appropriate amount of samples and preparing them according to the solvent ratio of the IV group, and evenly reaching the state of 10 mg/mL after stirring and ultrasound. Administration: after fasting for one night, intravenous administration was performed in the IV group, with an administration volume of 5 mL/kg and a dose of 1 mg/kg: the PO group was administered intragastrically a dose volume of 10 mL/kg and a dose of 100 mg/kg.
Experimental operation: after the test compounds were administered to the male ICR mice in the intravenous injection group and the intragastric administration group, the blood 110 ul were collected at time points of 0.25, 0.5, 1, 2, 4, 7, and 24 h, and stored in a commercial anticoagulant tube pre-filled with K2EDTA. The plasma was separated by centrifugation for 15 min and stored at −70° C. Animals were fed 4 h after administration. The plasma levels of test compounds following intravenous and intragastric administration in mice were determined by LC/MS/MS method. The linear range of the method was 1-3000 ng/ml; Plasma samples were analyzed after treatment with acetonitrile precipitated protein.

Data set [2] addresses KRAS^G12D mutant protein binding to RBD region fragment of RAF1 protein (Homo sapiens (Human), UniProt P01116, G12D). The data set can be described thus: KRAS-RAF1 binding assay (HTRF), KRAS G12D. Particulars: His-KRAS^G12D, GST-RAF1-RBD, GTP. The protocol:
(§1) GST-RAF1-RBD was purchased from BPS Bioscience; Cat. NO.: 100519; KRAS^G12D was purchased from BPS Bioscience; Cat. NO.: 100623; KRAS^wt was purchased from Reactionbiology; GTP was purchased from Sigma; Cat. NO.: G8877; Mab Anti GST-XL665 was purchased from cisbio; Cat. NO.: 61GSTXLF; Eu-W1024-anti-6×HIS was purchased from PE; Cat. NO.: AD0111; ProxiPlate-384-Plates was purchased from PerkinElmer; Cat. NO.: 6008289; DMSO was purchased from VWR AMRESCO; Cat. NO.: 0231-500ML; microplate reader was purchased from PerkinElmer; Cat. NO.: Envison;
(§2) This experiment is intended to investigate the inhibitory effect of compounds on the binding of KRAS^G12D mutant protein or KRAS^Wt (wild type) protein to fragments of the RBD region fragment of RAF1 protein. A 500×3-fold gradient concentration stock of compound was prepared using DMSO and diluted 50-fold into a 10× stock of compound using reaction buffer. To the reaction wells of an ELISA plate (ProxiPlate-384-Plates), was first added 3 µL of His-KRAS^G12D protein or KRAS^wt protein, then added 1 μL of 200 µM GTP and incubated for 30 min, then added 2 μL of 10× compound or reaction buffer with 2% DMSO (positive control) and incubated for 30 min, then added 4 μL of GST-RAF1-RBD protein or reaction buffer (negative control) and incubated for 15 min, then added […] anti-His antibody and XL665-labeled anti-GST antibody mixed well in advance and incubated for 60 min before reading HTRF signal by microplate reader. The inhibition ratio of compounds on KRAS protein (G12D mutant or wild type) and RAF1 binding was calculated IR (%)=(positive control signal-compound well signal)/(positive control signal-negative control signal)×100% and IC50 values were calculated by fitting compound concentrations and corresponding inhibition ratios using the Prism 8 four-parameter method. […] While the inhibition IC50 values of the compounds on the binding of KRAS^wt (wild type) protein to the RBD region fragment of RAF1 protein was more than 40 nM or 100 nM, or more than 500 nM, or even more than 1 μM or 2 μM.

The target in data set [3] is KRAS^wt (wild type) protein binding to RBD region fragment of RAF1 protein (Homo sapiens (Human), UniProt P01116). The data set can be described thus: KRAS-RAF1 binding assay (HTRF), KRAS wild type. Particulars: GST-RAF1-RBD, GTP. The protocol: as §1, §2
Data set [4] concerns p-ERK in AGS cells (KRAS^G12D mutation). The data set can be described thus: Cell p-ERK detection assay. Type of data set: cell-based, human. As to conditions: 3 h incubation, HTRF. In short, it runs like this:
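AGS cells (KRAS G12D, ~20,000/well in F12K+10% FBS) treated next day with compound at 3.16-fold dilutions, 0.1% DMSO final, for 3 h. Lysates assayed for ERK phospho-T202/Y204 by HTRF after 4 h; inhibition vs DMSO and blank, IC50 from four-parameter fit.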
A general note: TR-FRET usually uses a lanthanide donor and a delayed reading to cut background.

In data set [5] the test system is AGS cells (KRAS^G12D mutation). The data set can be described thus: Cell proliferation inhibition assay (3D, CellTiter-Glo), AGS. Format: cell-based, human. As to conditions: 3D cell model, 5 days. Summed up:
(§3)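 3D spheroids of AsPC-1 (800 cells/well, RPMI-1640) or AGS (400 cells/well, F-12K), 10% FBS, seeded overnight, then exposed 5 days to 3.16-fold compound dilutions (0.1% DMSO final). CellTiter-Glo 3D luminescence gives inhibition relative to DMSO and medium blanks; IC50 from four-parameter fit.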
In general terms: ATP-based viability assays read luminescence as a measure of living cells.

Data set [6] has as its system AsPC-1 cells (KRAS^G12D mutation). The data set can be described thus: Cell proliferation inhibition assay (3D, CellTiter-Glo), AsPC-1. Format: cell-based, human. Particulars: 3D cell model, 5 days. Summed up:
as §3

Chain of KRAS^wt (wild type) protein binding to RBD region fragment of RAF1 protein (P01116-2 other isoform, or with tags, fused parts or gaps): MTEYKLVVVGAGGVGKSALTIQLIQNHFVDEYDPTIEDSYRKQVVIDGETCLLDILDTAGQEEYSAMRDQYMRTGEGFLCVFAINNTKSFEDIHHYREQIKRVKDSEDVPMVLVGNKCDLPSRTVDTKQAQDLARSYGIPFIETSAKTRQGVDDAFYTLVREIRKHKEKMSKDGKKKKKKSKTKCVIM
Chain of KRAS^G12D mutant protein binding to RBD region fragment of RAF1 protein (P01116-2 other isoform, or with tags, fused parts or gaps G12D): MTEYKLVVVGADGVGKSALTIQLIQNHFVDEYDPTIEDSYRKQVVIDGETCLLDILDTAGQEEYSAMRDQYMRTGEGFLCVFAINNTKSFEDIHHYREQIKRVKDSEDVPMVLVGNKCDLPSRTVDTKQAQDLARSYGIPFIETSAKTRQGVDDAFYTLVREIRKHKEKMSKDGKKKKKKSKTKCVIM

Usually Vd stands for the apparent volume that relates the amount in the body to the concentration in plasma or blood. Low values mean confinement near the circulation, high ones extensive tissue distribution. By half-life is commonly meant how long it takes for the measured level to halve. A higher half-life goes with slow loss. As usually defined, the AUC is the area under the concentration-time curve, a measure of exposure. As a reminder, the Cmax is the highest concentration seen after dosing. Take `C#Cc1c(F)ccc2cc(O)cc(-c3ncc4c(N5CC6CCC(C5)N6)nc(OC[C@@]56CCCN5C[C@H](F)C6)nc4c3F)c12` [MRTX1133, reference compound]: in data set [1], the Vd was determined as 14.1 L/kg, the half-life is 5.15 h, the exposure (AUC) came out at 745 ng·h/mL and the highest concentration (Cmax) worked out at 279 ng/mL.

As usually defined, the IC50 is the concentration needed to halve the response being measured. Lower therefore signals higher potency. Turning to `C#Cc1cccc2cc(O)cc(-c3c(F)cc4c(N5C[C@H]6CC[C@@H](C5)N6)nc(OCC56CCCN5CC(=C)C6)nc4c3F)c12` (stereo partly drawn) [Example Z20], the 50% inhibitory concentration (IC50) in data set [2] is 105 nM; in data set [3], 110 nM; in data set [4], 2.86 nM; in data set [5], 7.7 nM; in data set [6], 9.3 nM.

In the case of `C#Cc1c(F)ccc2cc(O)cc(-c3ncc4c(N5C[C@H]6CC[C@@H](C5)N6)nc(OCC56CC(=C)CN5CC(=C)C6)nc4c3F)c12` [Example Z194, 4-(4-((1R,5S)-3,8-diazabicyclo[3.2.1]octan-3-yl)-2-((2,6-dimethylenetetrahydro-1H-pyrrolizin-7a(5H)-yl)methoxy)-8-fluoropyrido[4,3-d]pyrimidin-7-yl)-5-ethynyl-6-fluoronaphthalen-2-ol], in data set [4] (Homo sapiens, AGS, 3 h), the 50% inhibitory concentration (IC50) was determined as 0.69 nM. In data set [5] (Homo sapiens, AGS, 120 h), it took 1.4 nM to reach half-maximal inhibition (IC50). The molecule further yielded an IC50 in data set [6] (Homo sapiens, ASPC1, 120 h) of 4.6 nM. In data set [1], this molecule had a distribution volume (Vd) of 16.9 L/kg, a half-life of 11.2 h, an AUC of 2840 ng·h/mL and a Cmax of 560 ng/mL.

As for `C#Cc1c(F)ccc2cc(O)cc(-c3ncc4c(N5C[C@H]6CC[C@@H](C5)N6)nc(OC[C@]56CCCN5CC(=C)C6)nc4c3F)c12` (single isomer, unassigned) [Example Z13], the half-inhibitory concentration (IC50) in data set [2] was determined as 53.6 nM; in data set [3], 101 nM; in data set [4] (Homo sapiens, AGS, 3 h), 11 nM; in data set [5] (Homo sapiens, AGS, 120 h) it was 13 nM; in data set [6] (Homo sapiens, ASPC1, 120 h) it was 67.2 nM.

As to `C#Cc1cccc2cc(O)cc(-c3ncc4c(N5C[C@H]6CC[C@@H](C5)N6)nc(OCC56CCCN5CC=C6CC)nc4c3F)c12` (stereo partly drawn) [Example Z16, 4-(4-((1R,5S)-3,8-diazabicyclo[3.2.1]octan-3-yl)-2-((7-ethyl-2,3-dihydro-1H-pyrrolizin-7a(5H)-yl)methoxy)-8-fluoropyrido[4,3-d]pyrimidin-7-yl)-5-ethynylnaphthalen-2-ol], the 50% inhibitory concentration (IC50) is 60.7 nM in data set [2]; above 1000 nM in data set [3]; 54.9 nM in data set [4] (Homo sapiens, AGS, 3 h); 92.6 nM in data set [5] (Homo sapiens, AGS, 120 h); 555 nM in data set [6] (Homo sapiens, ASPC1, 120 h).

As for `C#Cc1cccc2cc(O)cc(-c3ncc4c(N5CC6CCC(C5)N6)nc(OCC56CCCN5CCC(=C)C6)nc4c3F)c12` [Example Z18, 4-(4-((1R,5S)-3,8-diazabicyclo[3.2.1]octan-3-yl)-8-fluoro-2-((7-methylenehexahydroindolin-8a(1H)-yl)methoxy)pyrido[4,3-d]pyrimidin-7-yl)-5-ethynylnaphthalen-2-ol], the IC50 is 59.4 nM in data set [2]; above 1000 nM in data set [3]; 7.57 nM in data set [4]; 45.3 nM in data set [5]; 75.5 nM in data set [6].

With `C#Cc1cccc2cc(O)cc(-c3ncc4c(N5C[C@H]6C=C[C@@H](C5)N6)nc(OC[C@@]56CCCN5C[C@H](F)C6)nc4c3F)c12` [Example Z7, 4-(4-((1R,5S)-3,8-diazabicyclo[3.2.1]oct-6-en-3-yl)-8-fluoro-2-(((2R,7aS)-2-fluorotetrahydro-1H-pyrrolizin-7a(5H)-yl)methoxy)pyrido[4,3-d]pyrimidin-7-yl)-5-ethynylnaphthalen-2-ol], the IC50 stood at 72.6 nM in data set [2]; 1030 nM in data set [3]; 12 nM in data set [4] (Homo sapiens, AGS, 3 h); 32.6 nM in data set [5] (Homo sapiens, AGS, 120 h); 433 nM in data set [6] (Homo sapiens, ASPC1, 120 h).
